The record followed here is patent US20260158015A1 (Universite De Bordeaux, priority 2021, published 2026).

For the assay, the system named is SARS-CoV2 original Wuhan strain, Alpha, Delta and Omicron viruses. The assay is described as follows: Replication of SARS-CoV-2 circulating forms in pulmonary A549-ACE2 cells. The assay is classed as cell-based. To be noted: Severe acute respiratory syndrome coronavirus 2, read-out: IC50, block of viral replication of all variants.

Regarding `O=S(=O)(c1ccccc1)n1c(-c2cncc(-c3cc4cc(OCc5ccccc5)ccc4n3S(=O)(=O)c3ccccc3)c2)cc2cc(OCc3ccccc3)ccc21` [AB-00011778], the IC50 fell in the range of 0.5 to 1 µM.

Usually IC50 stands for the concentration that gives 50% inhibition.
